Patent US8513276B2, “Imidazo[1,2-a]pyridine compounds for use in treating cancer” (Astex Therapeutics Limited, priority 2006, dated 2013)
Structures can show the parent of a compound that is named as a salt. Where two headings read alike, the source gives them in different places.

How the values were obtained:
[1] = tested on: LP-1 cell line; experiment: Cell-based pERK ELISA in LP-1 multiple myeloma cells; details: Homo sapiens
Procedure: LP-1 or JIM-1 multiple myeloma cells were seeded in 96 well plates at 1×10^6 cells/ml in 200 μl per well in serum free media. HUVEC cells were seeded at 2.5×10^5 cells/ml and allowed to recover for 24 h prior to transfer to serum free media. Cells were incubated for 16 h at 37° C. prior to the addition of a test compound for 30 minutes. Test compounds were administered at a 0.1% final DMSO concentration. Following this 30 minute incubation a FGF-1/Heparin (FGF-1 at 100 ng/ml final and Heparin at 100 ug/ml) mixture or VEGF^165 ([…]) was added to each of the wells for a further 5 minutes. The media was removed and 50 ul ERK ELISA lysis buffer (R and D Systems DuoSet ELISA for pERK and Total ERK #DYC-1940E, DYC-1018E) added. ELISA plates and standards were prepared according to the standard DuoSet protocols and the relative amounts of pERK to total ERK in each sample calculated according to the standard curve.
In particular, compounds of the invention were tested against the LP-1 cell line (DSMZ no.: ACC 41) derived from human multiple myeloma.

[2] = target: T1, FGFR3 (Homo sapiens, UniProt P22607); experiment: FGFR3 in vitro kinase inhibitory activity assay (TRF); assay type: biochemical
T1 construct: Enzymes (from Upstate) were prepared at 2× final concentration in 1× kinase assay buffer; purchased Upstate
T1 sequence (P22607 23-806): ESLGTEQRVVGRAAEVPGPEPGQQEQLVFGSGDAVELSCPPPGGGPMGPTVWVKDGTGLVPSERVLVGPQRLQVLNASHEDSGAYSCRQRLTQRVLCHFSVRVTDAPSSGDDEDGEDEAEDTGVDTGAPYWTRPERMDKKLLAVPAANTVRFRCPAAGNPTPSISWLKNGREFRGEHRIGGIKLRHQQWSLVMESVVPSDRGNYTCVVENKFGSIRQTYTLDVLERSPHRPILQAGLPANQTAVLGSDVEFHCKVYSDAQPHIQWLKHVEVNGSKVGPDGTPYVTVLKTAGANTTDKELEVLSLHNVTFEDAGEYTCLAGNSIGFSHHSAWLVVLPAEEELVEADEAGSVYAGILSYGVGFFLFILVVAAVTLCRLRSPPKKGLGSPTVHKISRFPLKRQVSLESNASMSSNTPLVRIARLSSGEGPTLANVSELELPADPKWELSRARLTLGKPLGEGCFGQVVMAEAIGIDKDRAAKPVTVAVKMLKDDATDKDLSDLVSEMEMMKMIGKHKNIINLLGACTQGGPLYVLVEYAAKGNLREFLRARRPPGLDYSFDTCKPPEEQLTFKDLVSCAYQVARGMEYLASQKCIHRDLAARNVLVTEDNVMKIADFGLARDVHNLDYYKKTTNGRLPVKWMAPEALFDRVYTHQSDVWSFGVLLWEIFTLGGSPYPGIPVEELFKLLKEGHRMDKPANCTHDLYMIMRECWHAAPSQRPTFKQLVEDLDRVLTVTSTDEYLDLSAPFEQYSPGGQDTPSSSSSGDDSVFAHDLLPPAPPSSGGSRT
Procedure: Enzymes (from Upstate) were prepared at 2× final concentration in 1× kinase assay buffer (as described below). Enzymes were then incubated with test compounds, biotinylated Flt3 substrate (biotin—DNEYFYV) (Cell Signalling Technology Inc.) and ATP. The reaction was allowed to proceed for 3 hours (FGFR3) or 2.5 hrs (PDGFR-beta) at room temperature on a plate shaker at 900 rpm before being stopped with 20 μl of 35 mM EDTA, pH 8 (FGFR3) or 55 mM EDTA, pH 8 (PDGFR-beta). Twenty μl of 5× detection mix (50 mM HEPES pH 7.5, 0.1% BSA, 2 nM Eu-anti-pY (PY20) (PerkinElmer) 15 nM SA-XL665 (Cisbio) for FGFR3 and 50 mM HEPES, pH 7.5, 0.5 M KF, 0.1% BSA, 11.34 nM Eu-anti-pY (PT66) (PerkinEimer), 94 nM SA-XL665 (Cisbio) for PDGFR-beta) was then added to each well and the plate sealed and incubated at room temperature for one hour on a plate shaker at 900 rpm. The plate was then read on a Packard Fusion plate reader in TRF mode.
Kinase Assay buffers were:
A: 50 mM HEPES pH 7.5, 6 mM MnCl2, 1 mM DTT, 0.1% TritonX-100

[3] = LP-1 cell line, given as a bound, read-out: IC50 in LP-1 pERK ELISA
[4] = given as a bound, read-out: IC50 in the FGFR3 assay
[5] = LP-1 cells, FGF-1/heparin stimulation, pERK relative to total ERK, read-out: LP-1 pERK ELISA
[6] = in vitro kinase assay, 8 μM ATP, read-out: FGFR3 IC50

Structure (SMILES)	IC50 [1, 3]	IC50 [2, 4]	IC50 [1, 5]	IC50 [2, 6]
O=C(O)Cc1cccc(-c2ccn3c(-c4cccc(NCc5ccccc5)c4)cnc3c2)c1 [Example 13, {3-[3-(3-Benzylamino-phenyl)-imidazo[1,2-a]pyridin-7-yl]-phenyl}-acetic acid]	< 1000 nM	< 1000 nM	–	–
Cn1cc(-c2ccn3c(-c4cccc(Nc5nncs5)c4)cnc3c2)cn1 [Example 14, {3-[7-(1-Methyl-1H-pyrazol-4-yl)-imidazo[1,2-a]pyridin-3-yl]-phenyl}-[1,3,4]thiadiazol-2-yl-amine]	< 1000 nM	< 1000 nM	8.5 nM	16 nM
Cn1cc(-c2cnc3c(-c4cccc(Nc5nncs5)c4)cnn3c2)cn1 [Example 16, {3-[6-(1-Methyl-1H-pyrazol-4-yl)-pyrazolo[1,5-a]pyrimidin-3-yl]-phenyl}-[1,3,4]thiadiazol-2-yl-amine]	< 1000 nM	< 1000 nM	–	–
c1cc(Nc2nncs2)cc(-c2cnn3cc(-c4ccncc4)cnc23)c1 [Example 17, [3-(6-Pyridin-4-yl-pyrazolo[1,5-a]pyrimidin-3-yl)-phenyl]-[1,3,4]thiadiazol-2-yl-amine]	< 1000 nM	< 1000 nM	–	–
c1cc(Nc2nncs2)cc(-c2cnn3cc(-c4cnccn4)cnc23)c1 [Example 18, [3-(6-Pyrazin-2-yl-pyrazolo[1,5-a]pyrimidin-3-yl)-phenyl]-[1,3,4]thiadiazol-2-yl-amine]	< 1000 nM	< 1000 nM	–	–
c1cc(Nc2nncs2)cc(-c2cnc3cc(-c4ccc5c(c4)OCO5)ccn23)c1 [Example 20, [3-(7-Benzo[1,3]dioxol-5-yl-imidazo[1,2-a]pyridin-3-yl)-phenyl]-[1,3,4]thiadiazol-2-yl-amine Formate]	< 1000 nM	< 1000 nM	–	–
c1cc(Nc2nncs2)cc(-c2cnc3cc(N4CCCCC4)ccn23)c1 [Example 24, [3-(7-Piperidin-1-yl-imidazo[1,2-a]pyridin-3-yl)-phenyl]-[1,3,4]thiadiazol-2-yl-amine]	< 1000 nM	< 1000 nM	–	–
Fc1ccc(-c2cnc3c(-c4cncc(Nc5nncs5)c4)cnn3c2)cc1 [Example 25, {5-[6-(4-Fluoro-phenyl)-pyrazolo[1,5-a]pyrimidin-3-yl]-pyridin-3-yl}-[1,3,4]thiadiazol-2-yl-amine]	< 1000 nM	< 1000 nM	–	–
CNC(=O)Cc1cccc(-c2ccn3c(-c4cccc(Nc5nncs5)c4)cnc3c2)c1 [Example 26, N-Methyl-2-(3-{3-[3-([1,3,4]thiadiazol-2-ylamino)-phenyl]-imidazo[1,2-a]pyridin-7-yl}-phenyl)-acetamide Hydrochloride]	< 1000 nM	< 1000 nM	–	–
O=C1CN(Cc2cccc(-c3ccn4c(-c5cccc(Nc6nncs6)c5)cnc4c3)c2)CCN1 [Example 28, 4-(3-{3-[3-([1,3,4]Thiadiazol-2-ylamino)-phenyl]-imidazo[1,2-a]pyridin-7-yl}-benzyl)-piperazin-2-one Formate]	< 1000 nM	< 1000 nM	–	–
CNC(=O)c1cccc(-c2ccn3c(-c4cccc(Nc5nncs5)c4)cnc3c2)c1 [Example 30, N-Methyl-3-{3-[3-([1,3,4]thiadiazol-2-ylamino)-phenyl]-imidazo[1,2-a]pyridin-7-yl}-benzamide Hydrochloride]	< 1000 nM	< 1000 nM	–	–
Nc1cccc(-c2ccn3c(-c4cccc(Nc5nncs5)c4)cnc3c2)c1 [Example 32, {3-[7-(3-Amino-phenyl)-imidazo[1,2-a]pyridin-3-yl]-phenyl}-[1,3,4]thiadiazol-2-yl-amine Hydrochloride]	< 1000 nM	< 1000 nM	–	–
Cn1nnc(-c2ccn3c(-c4cccc(Nc5nncs5)c4)cnc3c2)n1 [Example 43, {3-[7-(2-Methyl-2H-tetrazol-5-yl)-imidazo[1,2-a]pyridin-3-yl]phenyl}-[1,3,4]thiadiazol-2-yl-amine]	< 1000 nM	< 1000 nM	140 nM	33.9 nM
Clc1ccn2c(-c3cccc(Nc4nncs4)c3)cnc2c1 [the starting material of Procedure A4c, [3-(7-Chloro-imidazo[1,2-a]pyridin-3-yl)-phenyl]-[1,3,4]thiadiazol-2-yl-amine]	< 1000 nM	< 1000 nM	–	–
